Data: patent US6677315B2, “Nucleosides for imaging and treatment applications” (The United States of America as represented by the …, priority 1997, dated 2004)

Legend:
U-937 cells = experiment: Growth inhibition, 72-hr continuous exposure; type: cell-based, human; settings: Homo sapiens; U-937, 100 μM, 72 hours continuous incubation
Protocol: (§1) The human-derived cell lines CEM, MOLT-4, RAJI, U-937, K-562 and the murine-derived L1210 were purchased from the American Type Culture Collection, Rockville, Md. Cells were grown and maintained as a suspension culture in RPMI 1640 medium containing L-glutamine and 10%(v/v) heat-inactivated fetal calf serum (BRL-GIBCO, Rockville, Md.). Penicillin-streptomycin solution (Sigma Chemical Co., St. Louis, Mo.) was added to achieve a final concentration of 100 units/mL. and 100 μg/mL respectively.
(§2) All cell lines, except for L1210, were suspended in fresh media at 30,000 cells/mL. L1210 cells were suspended at 10,000 cells/mL. Cells, 2 mL, were added to each of the wells of 24-well plates and incubated with either 0 to 1000 μM of FAU or 0 to 300 μM of FMAU. Incubation was conducted at 37° C. in a humidified 5% CO2 atmosphere for 72 hours. Inhibition of cellular growth was assessed by cell counting (Elzone 180, Particle Data, Inc., Elmhurst, IL). Under these conditions, the control doubling times for CEM, MOLT-4, RAJI, U-937, and K-562 cells were 21-22 hours, while the doubling times for L1210 was 8-10 hours.

RAJI cells = experiment: Growth inhibition, 72-hr continuous exposure; type: cell-based, human; settings: Homo sapiens, 72 hours continuous incubation
Protocol: as §1, §2

CEM cells = experiment: Growth inhibition, 72-hr continuous exposure; type: cell-based, human
Protocol: as §1, §2

MOLT-4 cells = experiment: Growth inhibition, 72-hr continuous exposure; type: cell-based, human; settings: Homo sapiens; MOLT-4, 100 μM, 72 hours continuous incubation
Protocol: as §1, §2

K-562 cells = experiment: Growth inhibition, 72-hr continuous exposure; type: cell-based, human
Protocol: as §1, §2

L1210 cells = experiment: Growth inhibition, 72-hr continuous exposure; type: cell-based, murine; settings: Mus musculus; L1210, 100 μM, 72 hours continuous incubation
Protocol: as §1, §2

[1] = biological target: T1, thymidylate synthase in MOLT-4 cells (Homo sapiens, UniProt P04818); experiment: Dehalogenation of IdUrd as probe for thymidylate synthase activity in situ; type: cell-based; settings: MOLT-4, 3 μM [3H]-IdUrd for 24 hours, fraction in DNA
T1 construct: endogenous in cells; host or cells: MOLT-4 cells
Protocol: (§3) The relative activity of thymidylate synthase was determined after incubation of cells with 3 μM [3H]-IdUrd for 24 hours. DNA was harvested, digested, and chromatographed as described above. Some IdUrd was incorporated into DNA with the iodine remaining intact on the pyrimidine ring. After conversion to IdUMP, part of the IdUrd was dehalogenated by TS to dUMP, which then was converted by TS into dTMP and subsequently incorporated into DNA, and recovered in the DNA digest as [^3H-dThd]. Relative TS activity in situ was defined as the fraction of IdUrd-derived material in DNA which was dehalogenated, i.e., ([^3H]-dThd)/([^3H]-dThd+[^3H]-IdUrd). These methods could also be used with non-radioactive IdUrd, if a stable isotopic label is used, e.g., ^13C, ^15N or ^2H. A mass spectrometric detector would be substituted for the radioactivity detector in the HPLC analysis. Unlabeled IdUrd can't be used since its dehalogenation produced unlabeled dThd, which would be indistinguishable from the endogenous pool of dThd in DNA.

[2] = biological target: T2, thymidylate synthase in U-937 cells (Homo sapiens, UniProt P04818); experiment: as above; type: cell-based; settings: U-937, 3 μM [3H]-IdUrd for 24 hours, fraction in DNA
T2 construct: endogenous in cells; host or cells: U-937 cells
Protocol: as §3

[3] = biological target: T3, thymidylate synthase in CEM cells (Homo sapiens, UniProt P04818); experiment: as above; type: cell-based; settings: 3 μM [3H]-IdUrd for 24 hours, fraction in DNA
T3 construct: endogenous in cells; host or cells: CEM cells
Protocol: as §3

[4] = biological target: T4, thymidylate synthase in RAJI cells (Homo sapiens, UniProt P04818); experiment: as above; type: cell-based; settings: 3 μM [3H]-IdUrd for 24 hours, fraction in DNA
T4 construct: endogenous in cells; host or cells: RAJI cells
Protocol: as §3

[5] = biological target: T5, thymidylate synthase in L1210 cells (Mus musculus, UniProt P07607); experiment: as above; type: cell-based, murine; settings: L1210, 3 μM [3H]-IdUrd for 24 hours, fraction in DNA
T5 construct: endogenous in cells; host or cells: L1210 cells
Protocol: as §3

T5 sequence (P07607 whole entry): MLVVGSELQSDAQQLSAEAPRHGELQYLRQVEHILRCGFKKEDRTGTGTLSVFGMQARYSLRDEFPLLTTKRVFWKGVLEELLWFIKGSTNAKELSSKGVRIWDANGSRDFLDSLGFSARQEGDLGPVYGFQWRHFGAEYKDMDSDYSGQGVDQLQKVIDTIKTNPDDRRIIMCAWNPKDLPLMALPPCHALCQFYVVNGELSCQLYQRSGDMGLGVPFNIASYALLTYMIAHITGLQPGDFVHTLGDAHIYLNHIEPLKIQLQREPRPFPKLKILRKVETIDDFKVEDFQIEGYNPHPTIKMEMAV
T1 sequence (P04818 whole entry): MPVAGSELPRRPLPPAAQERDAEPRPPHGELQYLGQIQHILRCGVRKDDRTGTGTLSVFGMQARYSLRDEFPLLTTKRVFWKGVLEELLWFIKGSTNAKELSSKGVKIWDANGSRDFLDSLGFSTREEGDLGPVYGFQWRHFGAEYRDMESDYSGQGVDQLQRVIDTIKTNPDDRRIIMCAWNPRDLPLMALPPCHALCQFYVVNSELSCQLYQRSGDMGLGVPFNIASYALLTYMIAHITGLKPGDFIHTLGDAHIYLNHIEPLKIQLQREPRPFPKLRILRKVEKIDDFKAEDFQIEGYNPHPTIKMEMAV
T2 sequence (P04818 whole entry): as above
T3 sequence (P04818 whole entry): as above
T4 sequence (P04818 whole entry): as above

| relative dehalogenation of IdUrd [1] | relative dehalogenation of IdUrd [2] | relative dehalogenation of IdUrd [3] | relative dehalogenation of IdUrd [4] | relative dehalogenation of IdUrd [5] | Structure (SMILES) | inhibition at 100 µM (U-937 cells) | inhibition at 100 µM (RAJI cells) | effect on cell growth (CEM cells; 0.3 μM (lowest concentration used), 72 hours) | inhibition at 100 µM (CEM cells; Homo sapiens, CCRF-CEM, 100 μM, 72 hours continuous incubation) | inhibition at 100 µM (MOLT-4 cells) | inhibition at 100 µM (K-562 cells; Homo sapiens, K562, K-562, 100 μM, 72 hours continuous incubation) | effect on cell growth (K-562 cells; K-562, 0.3 μM (lowest concentration used), 72 hours) | inhibition at 100 µM (L1210 cells) |
| --- | --- | --- | --- | --- | --- | --- | --- | --- | --- | --- | --- | --- | --- |
| – | – | – | – | – | Cc1cn([C@H]2O[C@H](CO)[C@@H](O)[C@@H]2F)c(=O)[nH]c1=O [FMAU, 1-(2-deoxy-2-fluoro-alpha-D-arabinofuranosyl)thymine, reference compound] | > 80% | > 80% | substantial effect | > 80% | > 80% | > 80% | substantial effect | > 80% |
| ≥ 50% | ≥ 50% | ≥ 50% | ≤ 15% | ≤ 15% | O=c1[nH]c(=O)n([C@H]2C[C@H](O)[C@@H](CO)O2)cc1I [IdUrd, Iododeoxyuridine] | – | – | – | – | – | – | – | – |
